Measurements from paper PMC12249711, “Comprehensive Evaluation of 1H-Isoindole-1,3(2H)-Dione Derivatives: Pharmacokinetic Studies and Analgesic Potential in Various Pain Models” (International Journal of Molecular Sciences, 2025).

Columns and labels:
mice [1] = assay: Capsaicin-induced neurogenic pain test; assay type: in vivo, Albino Swiss mice; conditions: vs vehicle
Experimental: The examined compounds were administered 30 min before the test (n = 112). The pain reaction was induced by injecting 20 μL of a capsaicin solution prepared in saline (1.6 μg capsaicin per mouse paw) into the dorsal surface of the right hind paw for further details. The animals were immediately placed individually into glass beakers and the amount of time spent licking the injected paw was recorded for 5 min with a chronometer.

[2] = set-up: method as in PMID 35396875; conditions: within the tested dose range; cited from earlier work
mice [3] = assay: Glutamate-induced pain test; assay type: in vivo, Albino Swiss mice; conditions: 20 mg/kg i.p.; vs vehicle
Experimental: Prior to the experimental procedure, individual mice were acclimatized in an observation chamber (n = 128). Thirty minutes before the test, the compounds under investigation were administered intraperitoneally (i.p.). A volume of 20 μL of a glutamate solution, containing 30 μmol per mouse paw, was subcutaneously injected into the ventral surface of the right hind paw to induce a pain response. Glutamate-induced nociception was assessed 15 min post-injection. The duration of time spent licking the injected paw was recorded using a chronometer and was interpreted as an indicator of nociception.

rats [4] = assay: Carrageenan-induced mechanical hyperalgesia (pain pressure threshold, Randall-Selitto); assay type: in vivo, Wistar rats; conditions: for Pain Threshold: mean ± SEM, rats; for Increase in pain threshold: vs control
Experimental: The acute and local inflammation and paw edema was induced by intraplantar (i.pl.) injection of 0.1 mL of 1% carrageenan solution in PBS into the rat’s right hind paw, according to the modified method of Winter and Lence, as described previously; (n = 84). The paw volume was measured using the dislocation of the water column of the plethysmometer (Type a, 7140; Plethysmometer, Ugo Basile, Gemonio, Italy) before (V0) and at 1, 2, and 3 h (V1, V2, V3) after i.pl. carrageenan injection. […] Vehicle (1% Tween 80) was administered by the same route as the tested compounds.
Furthermore, we performed the pain pressure threshold test to assess heightened sensitivity to mechanical stimuli. The experiment was conducted based on the method described by Randall and Selitto [58], with certain modifications. An analgesymeter (AnalgesyMeter 37215, Ugo Basile, Gemonio, Italy) was used to gradually apply increasing pressure (measured in grams) to the plantar surface of the right hind paw of the rat until paw withdrawal occurred. At this point, the intensity of the applied force (in grams) was recorded as the withdrawal threshold. The maximum force intensity was set at 250 g. Carrageenan induces a decrease in the nociceptive threshold in response to a mechanical stimulus, a condition referred to as hyperalgesia. For each rat, paw withdrawal thresholds were recorded both before (0 h) and 1, 2, and 3 h after carrageenan administration (i.e., 3.5 h after intraperitoneal pretreatment with the tested compounds). […] The analgesic effect of the tested compounds was assessed in comparison with the control group (1% Tween 80); the injection was performed intraperitoneally within 30 min of carrageenan administration. An analgesic effect occurs when the compound administered produces a pain response with greater pressure than the control group.

mice [5] = assay: Streptozotocin-induced diabetic neuropathy, von Frey test (tactile allodynia); assay type: in vivo, Albino Swiss mice; conditions: diabetic (STZ) mice, 10 mg/kg i.p.
Experimental: (§1) The induction of diabetes neuropathy in mice was achieved through the administration of streptozotocin (STZ), dissolved in PBS at a dose of 200 mg/kg in a constant volume of 0.1 mL/10 g of mouse body weight, intraperitoneally; (n = 50). Blood glucose levels were measured immediately prior to the administration of streptozotocin and 14 and 21 days following this administration in order to confirm the presence of hyperglycemia. For this purpose, 5 µL of blood was drawn from the tail vein of the mice using a strip glucose meter (AccuChek Active, Roche, Boulogne-Billancourt, France).
Furthermore, to assess the response to mechanical stimuli (i.e., tactile/mechanical) allodynia), the von Frey test was carried out with application of the electronic von Frey unit (Panlab, Cornellà de Llobregat, Spain) equipped with a fiber, the distal end of which was applied to the right hind paw of the mouse. The device automatically recorded the pressure force (in grams) applied until the paw withdrawal response occurred. In the absence of pain, an increase in the pressure value was observed. The force at which the animal withdrew its paw was considered the pain threshold for the mechanical stimulus. Measurements were taken before streptozotocin administration (in normoglycemic mice) and again 21 days later, both before and after compound administration, in diabetic mice (glucose level > 300 mg/dL) that had developed mechanical allodynia. On the day of the experiment, each mouse was placed in an observation chamber with a wire mesh bottom and was allowed to habituate for 1 h. After the habituation period, in order to obtain baseline values, each mouse was tested 3 times alternately in each hind paw, allowing at least 30 s between each measurement. Then, the mice were pretreated intraperitoneally with compound or vehicle, and 30 min later the animals were tested again and three measurements were taken, the mean of which was calculated to obtain the mean values after drug administration for each mouse. The anti-allodynic effect was defined as an increase in the pressure force value required to elicit a pain response, compared to the control group.

mice [6] = assay: Streptozotocin-induced diabetic neuropathy, hot plate test (thermal hyperalgesia); assay type: in vivo, Albino Swiss mice; conditions: diabetic (STZ) mice; 10 mg/kg i.p.
Experimental: as §1
To assess increased sensitivity to thermal stimuli, we used a hot plate testing apparatus (Panlab/Harvard Apparatus, Cornellà de Llobregat, Spain), following the methodology originally described by. In this procedure, after determining the baseline pain response time, 30 min after drug administration, mice were placed on a hot plate maintained at 55 °C and monitored for pain-related behaviors such as licking their hind paws or jumping. To avoid potential damage to paw tissue, a time limit of 45 s was set.

rats [7] = assay: Carrageenan-induced paw edema (plethysmometer); assay type: in vivo, Wistar rats; conditions: for Change in Edema Volume: mean ± SEM, rats; for Reduction in edema volume: vs control
Experimental: The acute and local inflammation and paw edema was induced by intraplantar (i.pl.) injection of 0.1 mL of 1% carrageenan solution in PBS into the rat’s right hind paw, according to the modified method of Winter and Lence, as described previously; (n = 84). […] Vehicle (1% Tween 80) was administered by the same route as the tested compounds.

[8] = 10 mg/kg i.p., 1 h after carrageenan
[9] = 10 mg/kg i.p., 2 h after carrageenan
[10] = 10 mg/kg i.p., 3 h after carrageenan
[11] = 20 mg/kg i.p., 1 h after carrageenan
[12] = 20 mg/kg i.p., 2 h after carrageenan
[13] = 20 mg/kg i.p., 3 h after carrageenan

**Q.** Which results are given for `O=C1c2ccccc2C(=O)N1CC(O)CN1CCN(C(c2ccccc2)c2ccccc2)CC1` (stereo not shown) [Compound F4]?
**A.** Reduction of capsaicin-induced neurogenic pain (mice [1]; 5 mg/kg i.p.): 42%; Reduction of capsaicin-induced neurogenic pain (mice [1]; 10 mg/kg i.p.): 33.6%; Reduction of capsaicin-induced neurogenic pain (mice [1]; 20 mg/kg i.p.): 57.25%; Effect on locomotor activity / sedation [2]: did not impair locomotor activity; Reduction of glutamate-induced pain reaction (mice [3]): 53.7%; Pain Threshold (rats [4]; 10 mg/kg i.p., 0 h (before carrageenan)): 131.7 ± 1.7 g; Pain Threshold (rats [4]; [8]): 139.2 ± 2.0 g; Pain Threshold (rats [4]; [9]): 141.7 ± 1.7 g; Pain Threshold (rats [4]; [10]): 139.2 ± 1.2 g; Increase in pain threshold (rats [4]; 10 mg/kg, 1 h): 10.5%; Increase in pain threshold (rats [4]; 10 mg/kg, 2 h): 13.4%; Increase in pain threshold (rats [4]; 10 mg/kg, 3 h): 12.9%; Pain Threshold (rats [4]; 20 mg/kg i.p., 0 h (before carrageenan)): 134.2 ± 1.5 g; Pain Threshold (rats [4]; [11]): 144.2 ± 0.8 g; Pain Threshold (rats [4]; [12]): 145 ± 1.5 g; Pain Threshold (rats [4]; [13]): 140.8 ± 0.8 g; Increase in pain threshold (rats [4]; 20 mg/kg, 1 h): 14.4%; Increase in pain threshold (rats [4]; 20 mg/kg, 2 h): 16%; Increase in pain threshold (rats [4]; 20 mg/kg, 3 h): 14.2%; Pain threshold after compound administration (von Frey) (mice [5]; 30 min before the test): 3.98 ± 0.23 g; Analgesic activity (von Frey) (mice [5]; vs pre-drug threshold): 38.29%; Pain response latency time after compound administration (hot plate, 55 °C) (mice [6]): did not affect the latency time; Change in Edema Volume (rats [7]; [8]): 1.37 ± 0.04 mL; Change in Edema Volume (rats [7]; [9]): 1.56 ± 0.06 mL; Change in Edema Volume (rats [7]; [10]): 1.85 ± 0.04 mL; Reduction in edema volume (rats [7]; 10 mg/kg, 1 h): 8.7%; Reduction in edema volume (rats [7]; 10 mg/kg, 2 h): 17%; Reduction in edema volume (rats [7]; 10 mg/kg, 3 h): 15.5%; Change in Edema Volume (rats [7]; [11]): 1.23 ± 0.01 mL; Change in Edema Volume (rats [7]; [12]): 1.47 ± 0.05 mL; Change in Edema Volume (rats [7]; [13]): 1.73 ± 0.02 mL; Reduction in edema volume (rats [7]; 20 mg/kg, 1 h): 18%; Reduction in edema volume (rats [7]; 20 mg/kg, 2 h): 21.8%; Reduction in edema volume (rats [7]; 20 mg/kg, 3 h): 21%
